In patent publication US10231453B2, “5-substituted imidazole derivatives” (BAYER CROPSCIENCE AKTIENGESELLSCHAFT, priority 2015, dated 2019):

Columns and labels:
[1] = Measurement of LogP values by HPLC on reversed phase columns (EEC directive 79/831 Annex V.A8); format: physicochemical; settings: method [a]: LC-UV, acidic range, 0.1% formic acid in water and acetonitrile as eluent; Table 1
Procedure: Measurement of Log P values was performed as outlined above.

Puccinia recondita = test: In vivo preventive test on Puccinia recondita (brown rust on wheat), Examples C and R3; settings: Puccinia recondita, 264 h; 500 ppm of active ingredient; wheat, preventive spray, evaluated 11 days after inoculation; read-out: efficacy
Septoria tritici = test: In vivo preventive test on Septoria tritici (leaf spot on wheat), Examples E, Q3 and R5; settings: Zymoseptoria tritici, 576 h, 500 ppm of active ingredient; wheat, preventive spray, evaluated 24 days after inoculation; read-out: efficacy
Sphaerotheca fuliginea = test: In vivo preventive test on Sphaerotheca fuliginea (powdery mildew on cucurbits), Examples F and R6; settings: Podosphaera fuliginea, 360 h; 500 ppm of active ingredient; gherkin, preventive spray, evaluated 15 days after inoculation; read-out: efficacy
Uromyces appendiculatus = test: In vivo preventive test on Uromyces appendiculatus (bean rust), Examples G and R7; settings: 264 h, 500 ppm of active ingredient, bean, preventive spray, evaluated 11 days after inoculation, read-out: efficacy
[2] = system: Blumeria graminis fsp. hordei; test: In vivo preventive Blumeria test (barley), Example K; settings: 168 h, 500 ppm of active ingredient, preventive spray, evaluated 7 days after inoculation, read-out: efficacy
Excerpt: After the spray coating has been dried, the plants are dusted with spores of Blumeria graminis fsp. hordei.

Pyricularia oryzae = test: whole plant or invertebrate; format: in vivo; settings: 192 h, read-out: efficacy
Pyrenophora teres = test: In vivo preventive test on Pyrenophora teres (net blotch on barley), Examples D, Q2 and R4; settings: Pyrenophora teres, 336 h, 500 ppm of active ingredient, preventive spray, evaluated 14 days after inoculation, read-out: efficacy
Alternaria solani = test: In vivo preventive Alternaria test (tomatoes), Example H; settings: 72 h, 100 ppm of active ingredient, preventive spray, evaluated 3 days after inoculation, read-out: efficacy
Phakopsora pachyrhizi = test: In vivo preventive Phakopsora test (soybeans), Example I; settings: 168 h, 100 ppm of active ingredient, preventive spray, evaluated 7 days after inoculation, read-out: efficacy
Venturia inaequalis = test: In vivo preventive Venturia test (apples), Example J; settings: 240 h, read-out: efficacy
Procedure: After the spray coating has dried on, the plants are inoculated with an aqueous conidia suspension of the causal agent of apple scab (Venturia inaequalis) and then remain for 1 day in an incubation cabinet at approximately 20° C. and a relative atmospheric humidity of 100%.
The plants are then placed in a greenhouse at approximately 21° C. and a relative atmospheric humidity of approximately 90%.
The test is evaluated 10 days after the inoculation.

Botrytis cinerea = test: In vivo preventive test on Botrytis cinerea (grey mould) on gherkin, Examples B, Q1 and R2; settings: Botrytis cinerea, 500 ppm of active ingredient, preventive spray, evaluated 4 to 5 days after inoculation, read-out: efficacy
Fusarium graminearum = test: whole plant or invertebrate; format: in vivo; settings: in Hordeum vulgare, 120 h, read-out: efficacy
Alternaria brassicae = test: In vivo preventive test on Alternaria brassicae (leaf spot on radish), Examples A and R1; settings: Alternaria brassicae, 144 h, 500 ppm of active ingredient, preventive spray, evaluated 6 days after inoculation, read-out: efficacy

Row | SMILES | chromatographic logP [1] | pest or weed control at 500 ppm (Puccinia recondita) [%] | pest or weed control at 500 ppm (Septoria tritici) [%] | pest or weed control at 500 ppm (Sphaerotheca fuliginea) [%] | pest or weed control at 500 ppm (Uromyces appendiculatus) [%] | pest or weed control at 500 ppm [2] [%] | pest or weed control at 500 ppm (Pyricularia oryzae) [%] | pest or weed control at 500 ppm (Pyrenophora teres) [%] | pest or weed control at 100 ppm (Alternaria solani) [%] | pest or weed control at 100 ppm (Phakopsora pachyrhizi) [%] | pest or weed control at 100 ppm (Venturia inaequalis) [%] | pest or weed control at 500 ppm (Botrytis cinerea) [%] | pest or weed control at 500 ppm (Fusarium graminearum) [%] | pest or weed control at 500 ppm (Alternaria brassicae) [%]
1 | N#Cc1cncn1CC(O)(Cc1ccncc1C(F)(F)F)C1(Cl)CC1 (stereo not shown) [Example I-92] | 2.18 | 80 to 89 | 90 to 100 | 90 to 100 | 90 to 100 | 90 to 100 | 80 to 89 |  |  |  |  |  |  | 
2 | N#Cc1cncn1CC(O)(Cc1ccc(F)c(Cl)c1F)C1(Cl)CC1 (stereo not shown) [Example I-101] | 3.17 | 90 to 100 | 90 to 100 | 90 to 100 | 90 to 100 | 90 to 100 |  | 90 to 100 | 90 to 100 | 90 to 100 | 80 to 89 |  |  | 
3 | Cc1ccc(CC(O)(Cn2cncc2C#N)C2(Cl)CC2)c(F)c1 (stereo not shown) [Example I-107] | 2.97 | 80 to 89 | 90 to 100 | 90 to 100 | 80 to 89 |  |  | 90 to 100 | 90 to 100 | 80 to 89 | 80 to 89 | 90 to 100 |  | 
4 | OC(Cc1ccc(F)cc1F)(Cn1cncc1Cl)C1(Cl)CC1 (stereo not shown) [Example I-126] |  | 90 to 100 | 90 to 100 | 90 to 100 | 90 to 100 | 90 to 100 | 90 to 100 | 90 to 100 | 90 to 100 | 90 to 100 |  | 90 to 100 | 90 to 100 | 
5 | CC1(C(O)(Cc2cccc(F)c2F)Cn2cncc2C#N)CC1 (stereo not shown) [Example I-144] | 2.75 | 90 to 100 | 90 to 100 | 90 to 100 | 90 to 100 | 90 to 100 | 70 to 79 | 90 to 100 |  |  |  | 90 to 100 | 90 to 100 | 
6 | Cc1cc(F)ccc1CC(O)(Cn1cncc1C#N)C1(Cl)CC1 (stereo not shown) [Example I-153] |  | 90 to 100 | 90 to 100 | 90 to 100 | 90 to 100 |  |  | 80 to 89 | 90 to 100 | 90 to 100 | 80 to 89 |  |  | 
7 | Cc1cc(F)ccc1CC(O)(Cn1cncc1Cl)C1(Cl)CC1 (stereo not shown) [Example I-155] | 2.46 | 80 to 89 | 90 to 100 | 90 to 100 | 90 to 100 |  |  | 70 to 79 | 90 to 100 | 90 to 100 | 90 to 100 | 90 to 100 |  | 70 to 79
8 | N#Cc1cncn1CC(O)(Cc1cc(F)cc(F)c1)C1(Cl)CC1 (stereo not shown) [Example I-156] | 2.86 | 90 to 100 | 90 to 100 | 90 to 100 | 90 to 100 | 90 to 100 |  | 80 to 89 |  |  |  |  | 80 to 89 | 
9 | OC(Cc1ccc(F)cc1)(Cn1cncc1Cl)C1(Cl)CC1 (stereo not shown) [Example I-158] | 2.13 | 80 to 89 | 90 to 100 | 90 to 100 | 90 to 100 |  |  | 90 to 100 | 90 to 100 | 90 to 100 |  | 90 to 100 |  | 
10 | N#Cc1cncn1CC(O)(Cc1cc(F)ncc1Cl)C1(Cl)CC1 (stereo not shown) [Example I-165] | 2.38 | 90 to 100 | 90 to 100 | 90 to 100 | 90 to 100 | 90 to 100 | 90 to 100 |  |  |  |  |  |  | 
